These results are taken from patent US11485740B2, “Inhibitors of TRPC6” (Boehringer Ingelheim International GmbH, priority 2018, dated 2022).

For this experiment, the target named is T1, human TRPC6 (Homo sapiens, UniProt Q9Y210).
T1 construct: expressed in transfected cells
T1 sequence (Q9Y210 1-931): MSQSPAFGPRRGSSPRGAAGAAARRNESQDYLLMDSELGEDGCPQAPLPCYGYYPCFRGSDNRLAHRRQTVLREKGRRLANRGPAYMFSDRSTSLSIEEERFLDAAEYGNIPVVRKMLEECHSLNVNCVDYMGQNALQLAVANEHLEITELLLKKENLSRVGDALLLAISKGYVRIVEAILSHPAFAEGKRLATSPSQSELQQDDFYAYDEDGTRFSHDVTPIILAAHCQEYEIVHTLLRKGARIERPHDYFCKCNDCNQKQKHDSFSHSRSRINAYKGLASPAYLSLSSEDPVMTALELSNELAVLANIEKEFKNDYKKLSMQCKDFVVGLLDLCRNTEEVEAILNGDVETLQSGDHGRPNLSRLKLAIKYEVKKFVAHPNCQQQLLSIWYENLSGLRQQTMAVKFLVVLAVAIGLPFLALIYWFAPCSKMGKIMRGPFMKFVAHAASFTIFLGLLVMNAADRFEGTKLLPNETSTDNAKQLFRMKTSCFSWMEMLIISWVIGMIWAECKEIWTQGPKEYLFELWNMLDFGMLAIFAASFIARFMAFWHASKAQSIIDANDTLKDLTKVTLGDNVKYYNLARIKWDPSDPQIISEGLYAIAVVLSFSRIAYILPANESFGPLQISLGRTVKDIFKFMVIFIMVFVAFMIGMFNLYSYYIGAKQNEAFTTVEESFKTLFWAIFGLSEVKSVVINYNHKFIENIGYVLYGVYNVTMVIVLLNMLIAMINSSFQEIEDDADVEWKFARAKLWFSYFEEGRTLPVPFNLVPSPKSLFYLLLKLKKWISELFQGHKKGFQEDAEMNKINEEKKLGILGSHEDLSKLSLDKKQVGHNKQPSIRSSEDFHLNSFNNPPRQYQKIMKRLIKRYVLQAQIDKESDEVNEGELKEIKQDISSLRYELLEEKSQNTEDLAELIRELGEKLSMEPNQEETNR
The experiment is described as follows: High throughput screening assay: Fluo4/AM calcium fluorescence in HEK293/TREx cells expressing human TRPC6, agonist GSK1702934A (single concentration 10 μM and IC50 curves). It counts as cell-based. The conditions noted are these: antagonist effect against human TRPC6, 7 concentrations 20 μM to 0.027 μM, triplicate. The method in brief: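 HEK293/TREx cells stably carrying tetracycline-induced (1 μg/ml) human TRPC6, loaded with Fluo4/AM (0.5 μM, 60 min, RT), pretreated 2 min with compound (10 μM final in screen), then stimulated with GSK1702934A in high-Ca2+ Ringer's (20 mM Ca2+ final). Fluorescence ratio over ~3 min normalized to no-compound and control-blocker wells; IC50 from triplicate curves.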
By IC50 is commonly meant the concentration that inhibits the measured activity by half. Turning to `COc1cc(C(=O)N2CCC(c3ccc(N)nn3)CC2)ncc1-c1ccc(OCC(F)(F)F)cc1` [Compound 29, [4-(6-Amino-pyridazin-3-yl)-piperidin-1-yl]-{4-methoxy-5-[4-(2,2,2-trifluoro-ethoxy)-phenyl]-pyridin-2-yl}-methanone], the IC50 is 110 nM.

As for `COc1cc(C(=O)N2CCN(c3ccc(N)nc3)C[C@@H]2CO)ncc1-c1ccc(F)cc1` [Compound 90, [(R)-4-(6-Amino-pyridin-3-yl)-2-hydroxymethyl-piperazin-1-yl]-[5-(4-fluoro-phenyl)-4-methoxy-pyridin-2-yl]-methanone], the IC50 is 370 nM. Regarding `COc1cc(C(=O)N2CCC(c3ccc(N)nn3)CC2)ncc1-c1cccc(OCC(C)C)c1` [Compound 52, [4-(6-Amino-pyridazin-3-yl)-piperidin-1-yl]-[5-(3-isobutoxy-phenyl)-4-methoxy-pyridin-2-yl]-methanone], the IC50 is 240 nM.

As to `COc1cc(C(=O)N2CCC(c3ccc(N)nn3)CC2)ccc1-c1ccc(C(F)(F)F)cc1` [Compound 55, [4-(6-Amino-pyridazin-3-yl)-piperidin-1-yl]-(2-methoxy-4′-trifluoromethyl-biphenyl-4-yl)-methanone], the concentration for half-maximal inhibition (IC50) is 430 nM. In the case of `COc1cc(C(=O)N2CCC(c3ccc(N)nn3)CC2)ncc1-c1cccc(OCC2CC2)c1` [Compound 21, [4-(6-Amino-pyridazin-3-yl)-piperidin-1-yl]-[5-(3-cyclopropylmethoxy-phenyl)-4-methoxy-pyridin-2-yl]-methanone], the IC50 is 160 nM. The value for `COc1cc(C(=O)N2CCC(c3ccc(N)nn3)CC2)cnc1-c1ccc(C(F)(F)F)cc1` [Compound 65, [4-(6-Amino-pyridazin-3-yl)-piperidin-1-yl]-[5-methoxy-6-(4-trifluoromethyl-phenyl)-pyridin-3-yl]-methanone] was 860 nM. Regarding `COc1cc(C(=O)N2CCC(c3ccc(N)nn3)CC2)ncc1-c1ccc(C(F)(F)F)c(F)c1` [Compound 26, [4-(6-Amino-pyridazin-3-yl)-piperidin-1-yl]-[5-(3-fluoro-4-trifluoromethyl-phenyl)-4-methoxy-pyridin-2-yl]-methanone], the IC50 is 58 nM. Consider `Cc1ccc(-c2ccc(C(=O)N3CCC(c4ccc(N)nn4)CC3)cc2)cc1` [Compound 3, [4-(6-Amino-pyridazin-3-yl)-piperidin-1-yl]-(4′-methyl-biphenyl-4-yl)-methanone], for which the IC50 was 1700 nM. The value for `COc1cc(C(=O)N2CCC(c3ccc(N)nn3)CC2)ccc1-c1ccnc(C(F)(F)F)c1` [Compound 61, [4-(6-Amino-pyridazin-3-yl)-piperidin-1-yl]-[3-methoxy-4-(2-trifluoromethyl-pyridin-4-yl)-phenyl]-methanone] was 4100 nM; that for `COc1cc(C(=O)N2CCC(c3ccc(N)nn3)CC2)ncc1-c1ccc(F)cc1` [Compound 36, 6-{1-[5-(4-Fluorophenyl)-4-methoxypyridine-2-carbonyl]piperidin-4-yl}pyridazin-3-amine] was 27 nM; that for `COc1cc(C(=O)N2CCN(c3cnc(N)cc3OC)C[C@@H]2[C@H](C)O)ncc1-c1ccc(C(F)(F)F)cc1` [Compound 107] was 210 nM.

On to `COc1cc(C(=O)N2CCC(c3ccc(N)nn3)CC2)ncc1-c1ccc(OC2CC2)cc1` [Compound 41, [4-(6-Amino-pyridazin-3-yl)-piperidin-1-yl]-[5-(4-cyclopropoxy-phenyl)-4-methoxy-pyridin-2-yl]-methanone], for which the IC50 turned out to be 130 nM. Regarding `COc1cc(C(=O)N2CCC(c3ccc(N)nn3)CC2)ncc1-c1ccc(OCC2CC2)nc1` [Compound 50, [4-(6-Amino-pyridazin-3-yl)-piperidin-1-yl]-(6′-cyclopropylmethoxy-4-methoxy-[3,3′]bipyridinyl-6-yl)-methanone], the IC50 was determined as 190 nM. Turning to `COc1cc(C(=O)N2CCN(c3cnc(N)cc3OC)CC2)ncc1-c1ccc(F)cc1` [Compound 104, [4-(6-Amino-4-methoxy-pyridin-3-yl)-piperazin-1-yl]-[5-(4-fluoro-phenyl)-4-methoxy-pyridin-2-yl]-methanone], the 50% inhibitory concentration (IC50) came to 27 nM.

`Cc1cc(C(=O)N2CCC(c3ccc(N)nn3)CC2)ccc1-c1ccc(C(F)(F)F)cc1` [Compound 63, [4-(6-Amino-pyridazin-3-yl)-piperidin-1-yl]-(2-methyl-4′-trifluoromethyl-biphenyl-4-yl)-methanone]: the IC50 is 4700 nM. The value for `COc1ccc(-c2ccc(C(=O)N3CCC(c4ccc(N)nn4)CC3)cc2)cc1` [Compound 5, [4-(6-Amino-pyridazin-3-yl)-piperidin-1-yl]-(4′-methoxy-biphenyl-4-yl)-methanone] was 2500 nM. The value for `COc1cc(C(=O)N2CCC(c3ccc(N)nn3)CC2)ccc1-c1ccccc1` [Compound 60, [4-(6-Amino-pyridazin-3-yl)-piperidin-1-yl]-(2-methoxy-biphenyl-4-yl)-methanone] was 930 nM; that for `CC(C)(C)c1ccc(-c2ccc(C(=O)N3CCC(c4ccc(N)nn4)CC3)cc2)cc1` [Compound 10, [4-(6-Amino-pyridazin-3-yl)-piperidin-1-yl]-(4′-tert-butyl-biphenyl-4-yl)-methanone] was 9200 nM; that for `COc1cc(C(=O)N2CCC(c3ccc(N)nn3)CC2)ncc1-c1ccc2c(c1)OCCO2` [Compound 22, [4-(6-Amino-pyridazin-3-yl)-piperidin-1-yl]-[5-(2,3-dihydro-benzo[l ,4]dioxin-6-yl)-4-methoxy-pyridin-2-yl]-methanone] was 430 nM.

As for `COC[C@H]1CN(c2cnc(N)cc2OC)CCN1C(=O)c1cc(OC)c(-c2ccc(C(F)(F)F)cc2)cn1` [Compound 99, [(R)-4-(6-Amino-4-methoxy-pyridin-3-yl)-2-methoxymethyl-piperazin-1-yl]-[4-methoxy-5-(4-trifluoromethyl-phenyl)-pyridin-2-yl]-methanone], the IC50 is 300 nM. As to `COc1cc(C(=O)N2CCN(c3cnc(N)cc3OC)C[C@H]2CC(F)F)ncc1-c1ccc(C(F)(F)F)cc1` (single isomer, unassigned) [Compound 110], the IC50 is 400 nM.

Take `COc1cc(C(=O)N2CCN(c3cnc(N)cc3OC)CC2CC(F)F)ncc1-c1ccc(C(F)(F)F)cc1` (stereo not shown) [Compound 108, [4-(6-Amino-4-methoxy-pyridin-3-yl)-2-(2,2-difluoro-ethyl)-piperazin-1-yl]-[4-methoxy-5-(4-trifluoromethyl-phenyl)-pyridin-2-yl]-methanone]: the IC50 was 700 nM. With `COc1cc(C(=O)N2CCC(c3ccc(N)nn3)CC2)ncc1-c1ccc(OC2CC2)nc1` [Compound 112, [4-(6-Amino-pyridazin-3-yl)-piperidin-1-yl]-(6′-cyclopropoxy-4-methoxy-[3,3′]bipyridinyl-6-yl)-methanone], the concentration for half-maximal inhibition (IC50) worked out at 1400 nM. As for `COc1cc(-c2ccc(C(F)(F)F)cc2)ccc1C(=O)N1CCC(c2ccc(N)nn2)CC1` [Compound 66, [4-(6-Amino-pyridazin-3-yl)-piperidin-1-yl]-(3-methoxy-4′-trifluoromethyl-biphenyl-4-yl)-methanone], the concentration for half-maximal inhibition (IC50) came out at 520 nM.

For the compound `CCc1ccc(-c2cnc(C(=O)N3CCC(c4ccc(N)nn4)CC3)cc2OC)cn1` [Compound 44, [4-(6-Amino-pyridazin-3-yl)-piperidin-1-yl]-(6′-ethyl-4-methoxy-[3,3′]bipyridinyl-6-yl)-methanone], the IC50 came to 1700 nM.
